Source: ChEMBL document CHEMBL4229459, “An efficient synthetic route for preparation of antimycobacterial wollamides and evaluation of their in vitro and in vivo efficacy” (Bioorg Med Chem Lett, 2018)
Residues, ends and D or L forms follow the SMILES beside them.

Test system: Mycobacterium tuberculosis
Assay: Antimycobacterial activity against Mycobacterium bovis BCG measured after 7 days
Format: functional, organism-based
Details: variant bovis BCG, 168 h

Compound	IC50 [µM]
CC[C@@H](C)[C@@H]1NC(=O)[C@@H](CC(C)C)NC(=O)[C@H](CC(C)C)NC(=O)[C@H](Cc2c[nH]c3ccccc23)NC(=O)[C@@H](CCCN)NC(=O)[C@H](CC(N)=O)NC1=O	2.8
CC(C)C[C@@H]1NC(=O)[C@H](Cc2c[nH]c3ccccc23)NC(=O)[C@@H](CCCN)NC(=O)[C@H](CC(N)=O)NC(=O)[C@H](C(C)C)NC(=O)[C@@H](CC(C)C)NC1=O (HELM PEPTIDE1{[NCCC[C@@H](N[*:1])C(=O)[*:2]].W.L.[dL].V.N}$PEPTIDE1,PEPTIDE1,1:R1-6:R2$$$V2.0)	3.1
